Assay results: the NIST ThermoML archive (doi:10.1016/j.fluid.2013.01.002)

Columns and labels:
[1] = refractive index (Na D-line) (dimensionless); xn = mol fraction of the nth substance listed; conditions: 298.15 K, 101 kPa, Liquid, Standard Abbe refractometry
[2] = xn = mol fraction of the nth substance listed; conditions: 298.15 K, 101 kPa, Liquid, Vibrating tube method
[3] = refractive index (Na D-line) (dimensionless); conditions: 298.15 K; 101.33 kPa; Liquid; Standard Abbe refractometry
[4] = 298.15 K; 101.33 kPa; Liquid; Vibrating tube method

CCCCCCCCN(CCCCCCCC)CCCCCCCC [trioctylamine] + CCCCCCCCCCC
Conditions | mass density, [2] [kg/m3] | refractive index, [1]
x1 = 0.05 | 743.91 | 1.4176
x1 = 0.1 | 750.33 | 1.4199
x1 = 0.2017 | 761.55 | 1.4243
x1 = 0.3001 | 770.56 | 1.4285
x1 = 0.4002 | 778.34 | 1.4319
x1 = 0.4997 | 785.01 | 1.4351
x1 = 0.6003 | 790.89 | 1.438
x1 = 0.6989 | 795.96 | 1.4407
x1 = 0.7996 | 800.52 | 1.4434
x1 = 0.9003 | 804.51 | 1.4455
x1 = 0.9497 | 806.25 | 1.4466

CCCCCCCCN(CCCCCCCC)CCCCCCCC [trioctylamine] + CCCCCCCCCCCC
Conditions | mass density, [2] [kg/m3] | refractive index, [1]
x1 = 0.0501 | 751.32 | 1.4222
x1 = 0.1 | 756.64 | 1.4249
x1 = 0.1998 | 765.98 | 1.4287
x1 = 0.3 | 773.95 | 1.4323
x1 = 0.4 | 780.79 | 1.4354
x1 = 0.5001 | 786.75 | 1.4381
x1 = 0.6023 | 792.12 | 1.4403
x1 = 0.7001 | 796.7 | 1.4426
x1 = 0.8025 | 801 | 1.4444
x1 = 0.9002 | 804.65 | 1.4461
x1 = 0.9499 | 806.35 | 1.4468

CCCCCCCCCCCCO [dodecan-1-ol]
Conditions | mass density [kg/m3] | refractive index
[3] | – | 1.4407
[4] | 830.37 | –

CCCCCCCCN(CCCCCCCC)CCCCCCCC [trioctylamine]
Conditions | mass density [kg/m3] | refractive index
[3] | – | 1.4476
[4] | 807.9 | –

CCCCCCCCCCCC [dodecane]
Conditions | mass density [kg/m3] | refractive index
[3] | – | 1.4195
[4] | 745.52 | –

CCCCCCCCCCC [undecane]
Conditions | mass density [kg/m3] | refractive index
[3] | – | 1.415
[4] | 736.73 | –

CCCCCCCCN(CCCCCCCC)CCCCCCCC [trioctylamine] + CCCCCCCCCCCCO
Conditions | mass density, [2] [kg/m3] | refractive index, [1]
x1 = 0.0498 | 828.8 | 1.4416
x1 = 0.1011 | 827.31 | 1.4424
x1 = 0.2014 | 824.49 | 1.4437
x1 = 0.3012 | 821.97 | 1.4447
x1 = 0.4001 | 819.63 | 1.4455
x1 = 0.5 | 817.37 | 1.4461
x1 = 0.6005 | 815.19 | 1.4465
x1 = 0.6995 | 813.14 | 1.4469
x1 = 0.799 | 811.21 | 1.4473
x1 = 0.8999 | 809.43 | 1.4475
x1 = 0.9504 | 808.63 | 1.4476
